SMILES strings stand for the structures. “Also recorded” adds a separate entry of the source. Where two headings read alike, the source gives them in different places.

The source of these data is US20240115577A1, “SMALL MOLECULE REGULATORS OF ALVEOLAR TYPE 2 CELL PROLIFERATION FOR THE TREATMENT OF PULMONARY DISEASES” (THE SCRIPPS RESEARCH INSTITUTE, priority 2021, published 2024).

In data set [1] the test system is Primary human AEC2s. The data set can be described thus: AEC2 proliferation assay (Ki67 high content imaging). The class given is cell-based. Particulars: for EC50: Homo sapiens. The procedure:
To identify small molecules capable of proliferating AEC2s, as disclosed herein, we first established a culture system with primary human small airway epithelial cells (SAECs) from a commercial source.
AEC2 proliferation assay. Primary human AEC2s were plated at a density of 1,500 cells per well in black 384-well plates (Greiner) coated with 10 ug/mL. Laminin (Life Technologies) in 50 μL of Small Airway Epithelial Cell Growth Medium (Lonza) without EGF, retinoic acid and with 5% BPE. 100 nL of compound dissolved in DMSO was then delivered using a Biomek FX instrument (Beckman Coulter) fitted with a pintool head (V&P Scientific).

Data set [2] can be described thus: IT pharmacokinetics of dutogliptin (1) and dutogliptin boronate (15). Particulars: mouse, in vivo. The class given is in vivo, mouse. The protocol: Like other […]. Dutogliptin (1) dosed IT in mice with PBS solution quickly cleared in lung (<24h. Table 8A). […] The parent drug dutogliptin was detected in plasma and lung. […] The drug was retained in the lung for over 48 h. The data clearly illustrated the unexpected lung retention ability of boronate prodrug 15.

Data set [3] relates to HbA1c. Conditions: once-a-day oral doses of 200 mg and 400 mg; cited from earlier work.
The subject of data set [4] is acute lung injury induced by LPS. The data set can be described thus: LPS-induced acute lung injury (ALI) model. The class given is in vivo, mouse. Particulars: for minimal efficacious dose in LPS lung injury model / Efficacy in LPS acute lung injury model, result in words: oral; for Efficacy in LPS acute lung injury model, result in words: histological scoring, BALF protein. The protocol: Experimental methods of Acute Lung Injury (ALI) model
LPS from E. coli […] (Sigma) was used to induce acute lung injury in mice. Body weight matched (19 gram˜22 gram) female C57BL/6J mice at 9-11 weeks of age were selected to use in ALI model.
Vehicle control or DPP4 inhibitors were dosed at 10 ml/kg through oral gavage once or twice a day selected based on PK profile. […] Vehicle control or DPP4 inhibitors were dosed at 2 ml/kg through a 22 g flexible catheter every other day.
DPP4 inhibitors or vehicle control were given to mice starting from one day before LPS injection (day −1).
All animals were sacrificed at day 3.5 after LPS injection. Bronchoalveolar lavage fluid (BALF) was retrieved using standard method. 1 ml 4% formalin was used to inflate the lung, which was subsequently fixed in 4% formalin for 24 hours and preserved in 70% EtOH until histological process.
For readouts, total protein content in BALF was quantified using BCA assay: pulmonary inflammation and damage were assessed using H&E staining.

In data set [5] the test system is bleomycin-induced lung fibrosis. The data set can be described thus: Bleomycin-induced lung fibrosis model. The class given is in vivo, mouse. Particulars: for Dose required in mouse bleomycin / Dose required in mouse bleomycin, multiple of HED: Table 6; for Efficacy in bleomycin-induced lung fibrosis, result in words: oral, high doses. The protocol:
Experimental Methods of Bleomycin Model Bleomycin (Hospira) was used to induce lung fibrosis in mice. Body weight matched (24 gram˜28 gram) male C57BL/6J mice at 10-12 weeks of age were selected to use in bleomycin model. For orally delivered DPP4 inhibitors. compounds were dissolved in PBS resulting in clear solution. […] For intratracheally delivered DPP4 inhibitors, compounds were dissolved in PBS resulting in clear solution. […] 0.5 U/kg Bleomycin or PBS in sham group was intratracheally injection into mice lung at day 0. […] All animals were sacrificed at day 20 after bleomycin injection. Bronchoalveolar lavage fluid (BALF) was retrieved using standard method. 1 ml 4% formalin was used to inflate the lung, which was subsequently fixed in 4% formalin for 24 hours and preserved in 70% EtOH until histological process. For readouts, body weight was measured every day; total protein content in BALF was quantified using BCA assay; pulmonary fibrosis was assessed using Masson's trichrome staining.

The nature of data set [6]: Pharmacokinetic profiling of four gliptins (oral, IT or OP). The data set is classed as in vivo, mouse. Conditions: for fraction of oral dose required by pulmonary (IT or OP) delivery for similar lung exposure: oral 100 mg/kg versus IT/OP 20 mg/kg. The protocol:
B. Pharmacokinetic profiling. […] Thus, four of the five […] currently approved by the U.S. FDA were each administered to mice orally (100 mg/kg) or through intratracheal (IT) or oropharyngeal (OP) routes (20 mg/kg).

The subject of data set [7] is oral glucose tolerance. Conditions: rodent models of diabetes; cited from earlier work.
The subject of data set [8] is phospholipidosis. The data set is described as follows: Phospholipidosis assay in vitro. Conditions: FIG. 7A; listed as Linagliptin.
For data set [9] the following is noted: in vivo; cited from earlier work.
[10] abbreviates: Table 4, promotion of AEC2 proliferation, read-out: AEC2 EC50.
Setting [11] is: Table 5, read-out: AEC2 proliferation.
Setting [12] is: 4.4 mg/kg, Lung concentration of dutogliptin, Mean.
Setting [13] is: 4.4 mg/kg, Lung concentration of dutogliptin, individual animals.

On to `O=C(CN[C@@H]1CCNC1)N1CCC[C@H]1B(O)O` [Cpd 1, ((R)-1-(((R)-pyrrolidin-3-yl)glycyl)pyrrolidin-2-yl)boronic acid], for which the EC50 in [1] (setting [10]) and in data set [1] (setting [11]) was 280 nM throughout. The “time to clearance from lung” value in data set [2] is listed as under 24 h. Also, the concentration at 3 h in [2] (4.4 mg/kg, Bronchoalveolar lavage fluids concentration of dutogliptin, Mean) came to 309 ng/mL; in [2] (4.4 mg/kg, Bronchoalveolar lavage fluids concentration of dutogliptin, individual animals), 400 ng/mL; in data set [2] (setting [12]), 6550 ng/g; in data set [2] (setting [13]) it was 6800 ng/g. Besides, the concentration at 7 h amounted to 4560 ng/g in data set [2] (setting [12]) and 3800 ng/g in data set [2] (setting [13]). In data set [2] (setting [13]), this compound returned a concentration at 24 h of 3720 ng/g. Moreover, in [3], the HbA1c versus placebo result is “statistically reduced”.

For the compound `N#C[C@@H]1C[C@@H]2C[C@@H]2N1C(=O)[C@@H](N)C12CC3C[C@@H](C1)C[C@@](O)(C3)C2` [Cpd 4, (1S,3S,5S)-2-((2S)-2-amino-2-((1S,3R,5S)-3-hydroxyadamantan-1-yl)acetyl)-2-azabicyclo[3.1.0]hexane-3-carbonitrile], the “AEC2 proliferation, result in words” value in data set [1] was “promote AEC2 proliferation to the same magnitude as NVP-728”. Besides, the EC50 in [1] (setting [10]) turned out to be 650 nM. The EC50 in data set [1] (setting [11]) was determined as 650 nM. Besides, the “Dose required in mouse ALI” value in data set [4] (Table 6) is on record as 50 mg/kg BID (10-. The “minimal efficacious dose in LPS lung injury model” value in [4] worked out at 50 mg/kg. Moreover, in [4] (high doses, listed as Saxagliptin), the “Efficacy in LPS acute lung injury model, result in words” value (from here on “Efficacy in LPS acute lung injury model”) is listed as “efficacious; also recorded: promote repair; also recorded: dramatic improvements”. Further, in [5], the “Dose required in mouse bleomycin” value is recorded as 50 mg/kg BID; the “Dose required in mouse bleomycin, multiple of HED” value is on record as “(10-20x HED)”; the “Efficacy in bleomycin-induced lung fibrosis, result in words” value is reported as “efficacious”. Further, the “fraction of oral dose required by pulmonary (IT or OP) delivery for similar lung exposure” value (from here on “fraction of oral dose required”) in data set [6] is “one-fifth”. In data set [7], the “dose with efficacy in OGTT model” value was 0.5 to 5 mg/kg.

For the compound `CC#CCn1c(N2CCC[C@@H](N)C2)nc2c1c(=O)n(Cc1nc(C)c3ccccc3n1)c(=O)n2C` [Cpd 5, (R)-8-(3-aminopiperidin-1-yl)-7-(but-2-yn-1-yl)-3-methyl-1-((4-methylquinazolin-2-yl)methyl)-3,7-dihydro-1H-purine-2,6-dione], in [4] (FIG. 7B), the “doses with antagonistic activity, repeat dosing” value was at least 2 mg/kg and the “efficacious dose, repeat dosing” value amounted to 1 mg/kg. Further, in [4] (Table 6), the “Dose required in mouse ALI” value was 1 mg/kg QD; the “Dose required in mouse ALI, multiple of HED” value was “model (2x HED)”; the “dose toxic in mouse ALI model” value was 2 mg/kg. For the same compound, in data set [4] (high doses), the “Efficacy in LPS acute lung injury model” value was “efficacious”. Besides, in data set [5], the “Dose required in mouse bleomycin” value is recorded as over 10 mg/kg qD; the “Dose required in mouse bleomycin, multiple of HED” value was “(>20x HED)”; the “Efficacy in bleomycin-induced lung fibrosis, result in words” value is listed as “efficacious”. Further, the “fraction of oral dose required” value in [6] is “one-fifth”. In data set [6] (versus other gliptins), the “lung exposure over the evaluated time frame” value is recorded as “considerably higher lung exposure”. Further, in data set [8], the phospholipidosis induction result is “significant phospholipidosis at low concentrations; also recorded: induces phospholipidosis”.

On to `Cc1cc(N2CCN([C@@H]3CN[C@H](C(=O)N4CCSC4)C3)CC2)n(-c2ccccc2)n1` [Cpd 8, ((2S,4S)-4-(4-(3-methyl-1-phenyl-1H-pyrazol-5-yl)piperazin-1-yl)pyrrolidin-2-yl)(thiazolidin-3-yl)methanone], for which the “Adverse Events” value in [9] was 160 mg/day cardiac safety.

For `N[C@@H](CC(=O)N1CCn2c(nnc2C(F)(F)F)C1)Cc1cc(F)c(F)cc1F` [Sitagliptin], in [1], the “AEC2 proliferation, result in words” value is listed as “promote AEC2 proliferation to the same magnitude as NVP-728”. The EC50 in [1] (setting [11]) was 560 nM. Further, in data set [4] (LPS model), the “proliferative AEC2s (KI-67 SFPTC double positive cells)” value is “substantial increase” and the “total number of cells (all nuclei) or Ki-67 positive cells in the lung” value is “does not significantly increase”. Further, in [4] (Table 6), the “Dose required in mouse ALI” value is 100 mg/kg BID and the “Dose required in mouse ALI, multiple of HED” value is given as “(10-20x HED)”. In addition, in data set [4] (high doses, time course), the “cytokine or BALF levels at early timepoints” value is on record as “do not affect”. The “minimal efficacious dose in LPS lung injury model” value in data set [4] came out at 100 mg/kg. Besides, in data set [4] (high doses), the “Efficacy in LPS acute lung injury model” value is “efficacious; also recorded: promote repair; also recorded: dramatic improvements”. Further, the “protection in bleomycin model, co-treatment with Nintedanib (Ofev)” value in data set [5] (Bliss independence calculations) was “synergistic protection”. Also, in data set [5], the “Dose required in mouse bleomycin” value came to 100 mg/kg mg/kg BID and the “Efficacy in bleomycin-induced lung fibrosis, result in words” value was “efficacious; also recorded: ameliorative efficacy; also recorded: robust protection”. Moreover, the “fraction of oral dose required” value in [6] is “one-fifth”. Further, the “dose with efficacy in OGTT model” value in [7] was 3 to 30 mg/kg.
